Assays:
Format in all cases: in vivo, human
[1] = test system: acne vulgaris/acne rosacea; assay: Inception cohort investigational study of zafirlukast in acne vulgaris/acne rosacea patients
Text: This study was designed to evaluate the effectiveness in treating acne vulgaris with the drug zafirlukast After having established a mechanism by which zafirlukast would be effective in the treatment of acne vulgaris, and subsequently treating a single case of acne conglobata successfully during the summer and fall of 1999, this study was purposely designed to evaluate the treatment of acne vulgaris with the drug zafirlukast
Objective: To determine if the anti-leukotriene zafirlukast is effective in the treatment of acne vulgaris/acne rosacea.
Design: Inception cohort investigational study conducted from October 1999 to January 2000.
Setting: Rural Family Practice clinic in Waldheim, La.
Participants: A total of 7 male and 8 female patients aged 12-45 years diagnosed with mild, moderate, or severe acne vulgaris including one case of acne conglobata and 2 cases of acne rosacea were given 20 mg. of zafirlukast (ACCOLATE® brand from AstraZeneca) twice daily from week 1 through week 4. The dose was increased to 30 mg. twice daily at week 4 and continued through week 8. At week 8 the dose of zafirlukast was decreased to 20 mg twice daily and continued until the termination of the study at 10 weeks.
Between the months of October and November 1999 both adolescent and adult patients were recruited consecutively at a family practice clinic in rural Louisiana to participate in an investigational study to determine the effectiveness of zafirlukast in the treatment of acne vulgarism Those patients who provided informed consent and who have reported a prior medical diagnosis of acne vulgaris were enlisted into the study. This cohort was composed of a total of seven male and eight female Caucasian patients, age twelve to forty five years, diagnosed with mild, moderate or severe acne vulgaris.
Pre-study recruitment assessment data was consistent with the following: one of fifteen patients was diagnosed with acne conglobata; two of fifteen patients were […] with acne rosacea, one of which had acne scars who had previously been treated with oral isotretinoin for nodular-cystic acne; eleven of fifteen patients with moderate to severe inflammatory/nodular-cystic acne; all patients had self medicated with topical comedolytic over-the-counter agents; three of fifteen patients had never been treated with prescription (topical or systemic) medications; twelve of fifteen patients were prescribed a range of three to five medical prescriptions (both topical and systemic) with varying degrees of success and failure; three of fifteen patients had previously taken oral isotretinoin; two of fifteen patients had been offered oral isotretinoin but refused that treatment.
Inclusion criteria for study enlistment encompassed any patient who was requesting medical treatment of a chief complaint of acne dermatitis, coincident with a clinical diagnosis of acne vulgaris confirmed by physical examination. These patients voluntarily agreed to be treated with zafirlukast knowing that alternative treatment (both topical and systemic) were available. At the initial visit all patients were instructed on the use of zafirlukast This was to be administered by mouth twice daily. The potential side effects, potential adverse reactions, and other risks were all explained. Patients all agreed to avoid any over-the-counter acne preparations and were to use any household soft-soap product to wash the facial skin twice daily. Zafirlukast was to be administered at the dose of 20 mg. twice daily from week one through week four and then to be increased to 30 mg. twice daily at week four and continued through week eight. At week eight the dose of zafirlukast was to be decreased to 20 mg. taken twice daily and continued until the completion of the study at ten weeks.
Main Outcome Measures: Subjective and objective medical examination and qualitative photographic analysis were employed at each patients initial visit to establish baseline. […]

[2] = Serum ancillary hormone and liver function studies during zafirlukast treatment
Procedure: During the summer of 2000 an investigative study was initiated to determine the efficacy of zafirlukast in the treatment of androgenetic alopecia A middle aged blond haired person whom was actively undergoing genetically influenced alopecia was recruited and voluntarily enlisted into the study under informed consent. […] Just two months earlier serum luteinizing hormone, total testosterone, androstenedione and dehydroepiandrosterone sulfate levels were determined to be normal. Having considered that dihydrotestosterone levels may have been suppressed to a low normal range, as pre treatment dihydrotestosterone serum determination had not been performed, the dose of zafirlukast was increased to 40 mg taken by mouth twice daily. Continuing this dose for a one month period of time, serum dihydrotestosterone levels were reanalized and determined to be 21 NG/DL (normal 25 to 75 NG/DL). […] The patient was then withdrawn, from zafirlukast therapy and there were no specific complications or side effects during a one month abstinence from zafirlukast and serum dihydrotestosterone levels were redetermined and found to be 15 NG/DL (normal 25 to 75 NG/DL). This patient was then given the option to continue treatment with zafirlukast at a dose of 40 mg taken by mouth twice daily for the treatment of androgenic alopecia and decided to do so as they had witnessed the continued regrowth of hair and remission of hair loss while taking zafirlukast. […]
In this study a dose and time dependent effect has been identified with the treatment of both acne vulgaris and common baldness in genetically susceptible men and women without physical or psychological compromise, or forfeit of quality of life. […] Serum liver function studies monitored during this study remained in the normal range of value except in one patient with known Hepatitis C and abnormal pretreatment liver function studies; however, in all patients including the one patient with Hepatitis C, serum liver function studies improved with zafirlukast treatment possibly indicating a role in treating liver diseases in the future.

[3] = test system: Grade IV cystic acne vulgaris; assay: Zafirlukast treatment of a patient with Grade IV cystic acne vulgaris; details: person one, 40 mg po bid
dihydrotestosterone = assay: Serum dihydrotestosterone level in patients treated with zafirlukast
Procedure: (§1) During the summer of 2000 an investigative study was initiated to determine the efficacy of zafirlukast in the treatment of androgenetic alopecia A middle aged blond haired person whom was actively undergoing genetically influenced alopecia was recruited and voluntarily enlisted into the study under informed consent. […] Just two months earlier serum luteinizing hormone, total testosterone, androstenedione and dehydroepiandrosterone sulfate levels were determined to be normal. Having considered that dihydrotestosterone levels may have been suppressed to a low normal range, as pre treatment dihydrotestosterone serum determination had not been performed, the dose of zafirlukast was increased to 40 mg taken by mouth twice daily. Continuing this dose for a one month period of time, serum dihydrotestosterone levels were reanalized and determined to be 21 NG/DL (normal 25 to 75 NG/DL). […] The patient was then withdrawn, from zafirlukast therapy and there were no specific complications or side effects during a one month abstinence from zafirlukast and serum dihydrotestosterone levels were redetermined and found to be 15 NG/DL (normal 25 to 75 NG/DL). This patient was then given the option to continue treatment with zafirlukast at a dose of 40 mg taken by mouth twice daily for the treatment of androgenic alopecia and decided to do so as they had witnessed the continued regrowth of hair and remission of hair loss while taking zafirlukast. […] The results are as follows:
In person one undergoing treatment for Grade IV cystic acne vulgaris with zafirlukast at 40 mg po bid (by mouth twice a day) for 4 weeks, preceded by 2 weeks of zafirlukast treatment at 30 mg bid, their serum dihydrotestosterone level was determined to be 16 NG/DL (normal was 25 to 75 NG/DL).
(§2) In person two undergoing treatment with zafirlukast at 40 mg po bid for hereditary balding, their pretreatment dihydrotestosterone level was 5 NG/DL (normal 5 to 30 NG/DL); after 4 weeks of continuous treatment their dihydrotestosterone serum concentration was 4 NG/DL (normal 5 to 30 NG/DL) and at 6 weeks of continued treatment their serum dihydrotestosterone level was determined to be less than 3 NG/DL.

androgenetic alopecia = assay: Investigative study of zafirlukast in androgenetic alopecia / hereditary balding (hair loss and regrowth)
Procedure: as §1, §2

serum liver function studies ([2]; all patients including one with Hepatitis C): improved
serum luteinizing hormone, total testosterone, androstenedione and dehydroepiandrosterone sulfate levels ([2]; person, 20 mg twice daily, about second month): normal
serum 3-alpha androstanediol glucuronide, estrone, androstenedione, total testosterone, prostate specific antigen, and progesterone levels ([2]; person, 40 mg twice daily for one month): within normal limits
SMILES: COc1cc(C(=O)NS(=O)(=O)c2ccccc2C)ccc1Cc1cn(C)c2ccc(NC(=O)OC3CCCC3)cc12 [zafirlukast]
added benefit of higher dose ([1]; 30 mg twice daily from week 4 thru week 8 versus 20 mg twice daily): no added benefit
acne remission during the study ([1]; 15 patients, 20-30 mg twice daily oral, 10 weeks): all participants attained periods of acne remission
time to subjective and objective clinical improvement ([1]; after initiating zafirlukast therapy, routinely, observed as early as two weeks): 3-4 weeks
time to acne reoccurrence in consistently non-compliant patients ([1]; after more than 2-3 doses missed): 2 to 3 days
reduction of perilesional erythema ([1]; by week eight): 80-90%
reduction of perilesional erythema ([1]; by week four): 40-50%
resolution of perilesional erythema ([1]; by week two): 10-15%
reoccurrence of acne form lesions after discontinuation ([1]; discontinuation of therapy over a 5-7 day period): equal to baseline levels
remission in the one patient compliant throughout the entire study ([1]; fully compliant patient): complete remission
side effects ([1]; one participant with acne rosacea, taken on an empty stomach, only participant with side effects, none at 10 mg twice daily): asthenia
acne lesion remission and clearing [3]: significant improvement
serum dihydrotestosterone level (dihydrotestosterone; person one, 40 mg po bid for 4 weeks preceded by 2 weeks at 30 mg bid, normal 25 to 75): 16 ng/dL
dihydrotestosterone serum concentration (dihydrotestosterone; person two, 40 mg po bid, after 4 weeks, pretreatment 5, normal 5 to 30): 4 ng/dL
serum dihydrotestosterone level (dihydrotestosterone; person two, 40 mg po bid, at 6 weeks): less than 3 NG/DL
serum dihydrotestosterone level (dihydrotestosterone; person, 20 mg twice daily, completion of fourth month, normal 25 to 75): 32 ng/dL
serum dihydrotestosterone level (dihydrotestosterone; person, 40 mg twice daily for one month, normal 25 to 75): 21 ng/dL
serum dihydrotestosterone level (dihydrotestosterone; person, after one month abstinence from zafirlukast, normal 25 to 75): 15 ng/dL
side effects or adversities (androgenetic alopecia; person one (acne) and person two (balding), 40 mg po bid): never witnessing any side effects or adversities
regrowth of frontal hair (androgenetic alopecia; person two, 40 mg po bid): regrowth of frontal hair
regrowth of hair (androgenetic alopecia; person, 20 mg twice daily, by the fourth month): regrowth of hair in the area of temporat and vertex balding was observed
occurrence of hair loss (androgenetic alopecia; person, 20 mg twice daily, within the first 6 weeks): less occurrence of hair loss
side effects (androgenetic alopecia; person, 20-40 mg twice daily): never any side effects observed

Source: US6762193B1, “Method of treating hair loss” (priority 2000, dated 2004)
